Measurements as given in patent publication US9018395B2, “Pyrazolopyridine and pyrazolopyrimidine derivatives as melanocortin-4 receptor modulators” (Université de Montréal, priority 2011, dated 2015).

Target: T1, wild-type human melanocortin 4 receptor (WT-hMC4R) (Homo sapiens, UniProt P32245)
T1 construct: expressed in transfected cells; cDNA from UMR cDNA resource center
Assay: Cyclic AMP assay (HTRF), antagonist competition against NDP-α-MSH
Type: cell-based
Settings: HEK293T cells expressing double-tagged WT-hMC4R; cAMP accumulation; 1 hour compound then 4 nM NDP-α-MSH 30 min
Protocol: Intracellular cyclic 3′-5′ adenosine monophosphate (cAMP) accumulation was measured using a competitive immunoassay based on HTRF (Homogeneous Time-Resolved Fluorescence) technology (cAMP dynamic-2, Cis-Bio).
HEK293T stable cell line expressing double-tagged WT-hMC4R construct were collected and washed in cAMP buffer (1XD-PBS pH 7.4, 0.1% glucose). 40,000 cells/well were then dispensed in 96-well plates in cAMP buffer [1XD-PBS, 1% BSA, 0.1% Glucose, 0.75 mM 3-isobutyl-1methyl-xanthine (IBMX, Sigma)] and incubated either for antagonist competition assay: 1 hour at 37° C. with various concentrations of compound [0.01 nM-10 μM] followed by 30 min incubation at 37° C. with 4 nM of NDP-α-MSH (Sigma) or for agonist assay: 1 hour at 37° C. with various concentrations of compound [0.01 nM-10 μM]. 10,000 cells were transferred in 384-well plates, lysed and incubated with cAMP labeled with the dye d2 and anti-cAMP M-Antibody labeled with Cryptate following the manufacturer's protocol.
Reading of HTRF signal was performed on Artemis TR-FRET plate reader (Cosmo Bio).
All curve fitting was conducted using non-linear regression analyses from PRISM (version 4.0c, GraphPad Inc.) and the determination of Rmax and EC50 or IC50 parameters were obtained from sigmoidal dose-response phase (variable slope) equation.
A cDNA encoding a wild-type human MC4R with a 3 tandem copies of Hemaglutinine (HA) epitote sequence from UMR cDNA resource center was modified using known techniques in the art (e.g., PCR, cloning) to fused in frame at the C-terminal a venus-Yellow Fluorescent Protein (YFP) cDNA.
The resultant cDNA was then subcloned in eukaryotic expression vector, e.g. pcDNA 3.1(+) (Invitrogen).
The double tagged WT-hMC4R was transfected in HEK293T cells with lipofectamine (Invitrogen) following the manufacturer's instructions and permanently transfected clonal cell lines were selected by resistance to the neomycin analog G418.
HEK293T stable cell line expressing wild-type human melanocortin 4 receptor (WT-hMC4R) containing an N-terminal 3xHA epitope tag and an intracellular C-terminal venus-yellow fluorescent protein (v-YFP) were maintained at 37° C. in humidified air containing 5% CO2 in Dulbecoo's modified Eagle's medium (DMEM) supplemented with 10% fetal bovine serum (FBS), 100 U/ml penicillin/streptomycin (DMEM complete/10% FBS). Cells were generally at 70%-80% confluence on the day of assay.

T1 sequence (P32245 whole entry): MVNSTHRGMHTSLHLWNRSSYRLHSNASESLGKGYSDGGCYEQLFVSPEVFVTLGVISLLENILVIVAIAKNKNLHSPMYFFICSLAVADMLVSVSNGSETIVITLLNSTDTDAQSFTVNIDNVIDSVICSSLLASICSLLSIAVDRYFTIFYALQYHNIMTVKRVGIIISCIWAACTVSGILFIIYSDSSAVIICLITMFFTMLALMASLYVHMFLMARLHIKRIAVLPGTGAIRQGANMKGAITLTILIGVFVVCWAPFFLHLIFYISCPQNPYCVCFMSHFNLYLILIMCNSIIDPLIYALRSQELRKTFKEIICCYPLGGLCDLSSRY

SMILES | IC50 [µM]
CCN(CC)C/C=C/c1c(-c2ccc(OC)cc2)nn2ccc(C(=O)N(CCC(C)C)CCC(C)C)nc12 [Example 100] | 5 to 15
COc1ccc(Cl)cc1-c1nn2ccc(C(=O)N(CCC(C)C)CCC(C)C)cc2c1C#CCN1CCCCC1 [Example 101] | < 0.5
CC(C)CCN(CCC(C)C)C(=O)c1ccn2nc(-c3ccc(/C(N)=N/O)cc3)c(CCCN3CCCCC3)c2c1 [Example 102] | < 0.5
CC(C)CCN(CCC(C)C)C(=O)c1ccn2nc(-c3ccc(-c4noc(=O)[nH]4)cc3)c(CCCN3CCCCC3)c2c1 [Example 103] | 0.5 to 1
COc1ccc(-c2nn3ccc(C(=O)N(CCC(C)C)CCC(C)C)nc3c2CCCN2CCCC2)cc1 [Example 104] | 5 to 15
CC(=O)O/N=C(\N)c1ccc(-c2nn3ccc(C(=O)N(CCC(C)C)CCC(C)C)cc3c2CCCN2CCCCC2)cc1 [Example 107] | < 0.5
COc1ccc(-c2nn3ccc(C(=O)N(CCC4CC4)CCC4CC4)cc3c2/C=C/CN2CCCCC2)cc1 [Example 108] | 1 to 5
COc1ccc(Cl)cc1-c1nn2ccc(C(=O)N(CCC(C)C)CCC(C)C)cc2c1/C=C/CN1CCCCC1 [Example 113] | 1 to 5
COc1ccc(Cl)cc1-c1nn2ccc(C(=O)N(CCC(C)C)CCC(C)C)cc2c1CCCN1CCCCC1 [Example 114] | 1 to 5
CC(=O)c1ccc(-c2nn3ccc(C(=O)N(CCC(C)C)CCC(C)C)cc3c2/C=C/CN2CCOCC2)cc1 [Example 115] | 1 to 5
COc1ccc(Cl)cc1-c1nn2ccc(C(=O)N(CCC(C)C)CCC(C)C)cc2c1CCCN1CCCC1 [Example 116] | 1 to 5
COc1ccc(NC(=O)c2nn3ccc(C(=O)N(CCC(C)C)CCC(C)C)cc3c2/C=C/CN2CCCCC2)cc1 [Example 117] | 1 to 5
CC(C)CCN(CCC(C)C)C(=O)c1ccn2nc(C(C)(C)C)c(CCCN3CCCCC3)c2c1 [Example 119] | < 0.5
CCOC(=O)c1ccc(NC(=O)c2nn3ccc(C(=O)N(CCC(C)C)CCC(C)C)cc3c2/C=C/CN2CCCCC2)cc1 [Example 122] | 1 to 5
CCOC(=O)c1ccc(NC(=O)c2nn3ccc(C(=O)N(CCC(C)C)CCC(C)C)cc3c2CCCN2CCCCC2)cc1 [Example 125] | 1 to 5
CC(C)CCN(CCC(C)C)C(=N)c1ccn2nc(-c3ccc(C(N)=O)cc3)c(CCCN3CCCCC3)c2c1 [Example 126] | < 0.5

SMILES | IC50 [µM]
CC(C)CCN(CCC(C)C)C(=N)c1ccn2nc(-c3ccccc3)c(CCCN3CCCCC3)c2c1 [Example 127] | 0.5 to 1
CC(C)CCN(CCC(C)C)C(=O)c1ccn2nc(C(C)(C)C)c(/C=C/CN3CCCCC3)c2c1 [Example 128] | 1 to 5
CC(C)CCN(CCC(C)C)C(=O)c1ccn2nc(Br)c(/C=C/CN3CCCCC3)c2c1 [Example 132] | 1 to 5
CC(C)CCN(CCC(C)C)C(=O)c1ccn2nc(C(=O)Nc3ccc(C(=O)N4CCOCC4)cc3)c(CCCN3CCCCC3)c2c1 [Example 133] | 5 to 15
CC(C)CCN(CCC(C)C)C(=O)c1ccn2nc(-c3ccc(-c4noc(-c5ccccc5)n4)cc3)c(CCCN3CCCCC3)c2c1 [Example 134] | 1 to 5
CC(C)CCN(CCC(C)C)C(=O)c1ccn2nc(-c3ccc(-c4noc(C(F)(F)F)n4)cc3)c(CCCN3CCCCC3)c2c1 [Example 136] | 1 to 5
COc1ccc(Cl)cc1-c1nn2ccc(C(=O)N(CCC(C)C)CCC(C)C)cc2c1-c1ccc(CN2CCCCC2)cc1 [Example 137] | 1 to 5
COc1ccc(Nc2nn3ccc(C(=O)N(CCC(C)C)CCC(C)C)cc3c2/C=C/CN2CCCCC2)cc1 [Example 138, (E)-N,N-diisopentyl-2-((4-methoxphenyl)amino)-3-(3-(piperidin-1-yl)prop-1-en-1-yl)pyrazolo[1,5-a]pyridine-5-carboxamide] | < 0.5
CC(C)CCN(CCC(C)C)C(=O)c1ccn2nc(-c3ccc(-c4noc(-c5ccncc5)n4)cc3)c(CCCN3CCCCC3)c2c1 [Example 139] | < 0.5
CC(C)CCN(CCC(C)C)C(=O)c1ccn2nc(-c3ccc(-c4noc(Cc5ccc(F)cc5)n4)cc3)c(CCCN3CCCCC3)c2c1 [Example 140] | 5 to 15
CC(C)CCN(CCC(C)C)C(=O)c1ccn2nc(C(=O)N3CCOCC3)c(CCCN3CCCCC3)c2c1 [Example 141, N,N-diisopentyl-2-(morpholine-4-carbonyl)-3-(3-(piperidin-1-yl)propyl)pyrazolo[1,5-a]pyridine-5-carboxamide] | 5 to 15
CC(C)CCN(CCC(C)C)C(=S)c1ccn2nc(-c3ccccc3)c(CCCN3CCCCC3)c2c1 [Example 143] | 1 to 5
CC(C)CCN(CCC(C)C)Cc1ccn2nc(-c3ccccc3)c(CCCN3CCCCC3)c2c1 [Example 144] | 5 to 15
CCOc1ccc(-c2nn3ccc(C(=O)N(CCC(C)C)CCC(C)C)cc3c2/C=C/CN2CCOCC2)cc1 [Example 147] | 5 to 15
COc1ccccc1-c1nn2ccc(C(=O)N(CCC(C)C)CCC(C)C)cc2c1CCCN1CCCCC1 [Example 151] | 1 to 5
COc1ccc(Nc2nn3ccc(C(=O)N(CCC(C)C)CCC(C)C)cc3c2C(=O)NCCN2CCCCC2)cc1 [Example 152] | 0.5 to 1

Next, values leading:

IC50 [µM] | SMILES
5 to 15 | CCN(CC)CCCc1c(-c2ccc(OC)cc2)nn2ccc(C(=O)N(CCC(C)C)CCC(C)C)nc12 [Example 105]
1 to 5 | COc1ccc(-c2nn3ccc(C(=O)N(CCC(C)C)CCC(C)C)cc3c2/C=C/CN2CCCCCC2)cc1 [Example 106]
1 to 5 | COc1ccc(-c2nn3ccc(C(=O)N(CCC(C)C)CCC(C)C)cc3c2C#CCN2CCCCC2)cc1 [Example 109]
5 to 15 | CCCCN(C/C=C/c1c(-c2ccc(OC)cc2)nn2ccc(C(=O)N(CCCC)CCCC)cc12)CCCC [Example 110]
1 to 5 | COc1ccc(-c2nn3ccc(C(=O)N(CCC(C)C)CCC(C)C)cc3c2CCCN2CCCCCC2)cc1 [Example 111]
1 to 5 | CCCCN(CCCC)CCCc1c(-c2ccc(OC)cc2)nn2ccc(C(=O)N(CCCC)CCCC)cc12 [Example 112]
1 to 5 | CC(C)CCN(CCC(C)C)C(=O)c1ccn2nc(-c3ccc(C(C)O)cc3)c(CCCN3CCOCC3)c2c1 (stereo not drawn) [Example 118]
< 0.5 | CC(C)CCN(CCC(C)C)C(=O)c1ccn2nc(-c3ccc(C(=N)N)cc3)c(CCCN3CCCCC3)c2c1 [Example 120]
1 to 5 | CC(=O)c1ccc(-c2nn3ccc(C(=O)N(CCC(C)C)CCC(C)C)cc3c2CCCN2CCOCC2)cc1 [Example 121]
1 to 5 | COc1ccc(-c2nn3ccc(C(=O)N(CCC(C)C)CCC(C)C)cc3c2/C=C/CN2CCOCC2)cc1 [Example 123]
< 0.5 | COc1ccc(-c2nn3ccc(C(=O)N(CCC(C)C)CCC(C)C)cc3c2CCCN2CCOCC2)cc1 [Example 124]
0.5 to 1 | COc1ccc(-c2nn3ccc(C(=O)N(CCC(C)C)CCC(C)C)cc3c2CCCN(C)C2CCNCC2)cc1 [Example 129]
0.5 to 1 | COc1ccc(-c2nn3ccc(C(=O)N(CCC4CC4)CCC4CC4)cc3c2CCCN2CCCCC2)cc1 [Example 130]
5 to 15 | COc1ccc(-c2nn3ccc(N(CCC(C)C)CCC(C)C)cc3c2CCCN2CCCCC2)cc1 [Example 131]
< 0.5 | Cc1nc(-c2ccc(-c3nn4ccc(C(=O)N(CCC(C)C)CCC(C)C)cc4c3CCCN3CCCCC3)cc2)no1 [Example 135]
< 0.5 | COc1ccc(Nc2nn3ccc(C(=O)N(CCC(C)C)CCC(C)C)cc3c2CCCN2CCCCC2)cc1 [Example 142, N,N-diisopentyl-2-((4-methoxyphenyl)amino)-3-(3-(piperidin-1-yl)propyl)pyrazolo[1,5-a]pyridine-5-carboxamide]
< 0.5 | COc1ccc(-c2nn3ccc(C(=O)N(CCC(C)C)CCC(C)C)cc3c2/C=C/CN2CCC(C)CC2)cc1 [Example 145]
1 to 5 | COc1ccc(-c2nn3ccc(C(=O)N(CCC(C)C)CCC(C)C)cc3c2CCCN2CCC(C)CC2)cc1 [Example 146]
5 to 15 | COc1ccc(-c2nn3ccc(C(=O)N(CCC(C)C)CCC(C)C)cc3c2CCN2CCCCC2)cc1 [Example 149, N,N-diisopentyl-2-(4-methoxyphenyl)-3-(2-(piperidin-1-yl)ethyl)pyrazolo[1,5-a]pyridine-5-carboxamide]
5 to 15 | COc1ccc(-c2nn3ccc(C(=O)N(CCC(C)C)CCC(C)C)cc3c2/C=C/CNCc2ccccc2)cc1 [Example 150]
5 to 15 | CNC/C=C/c1c(-c2ccc(OC)cc2)nn2ccc(C(=O)N(CCC(C)C)CCC(C)C)cc12 [Example 153]
5 to 15 | COc1ccc(-c2nn3ccc(C(=O)N(CCC(C)C)CCC(C)C)cc3c2CCCN)cc1 [Example 154]
